Consider 32 compounds from ChEMBL document CHEMBL4196009, “Novel vitexin-inspired scaffold against leukemia” (Eur J Med Chem, 2018).

A value given as a limit tells only on which side of the number the result lay.

The subject of assay [1] is KOPN-8. The experiment in a line: Antiproliferative activity against human KOPN8 cells after 72 hrs by CelTiter-Glo assay. It counts as functional, cell-based. The settings on record: KOPN-8, 72 h.
Assay [2] deals with SEM cells. The experiment in a line: Antiproliferative activity against human SEM cells after 72 hrs by CelTiter-Glo assay. It counts as functional, cell-based.
For assay [3], the system named is SUP-B15. The experiment in a line: Antiproliferative activity against human SUP-B15 cells after 72 hrs by CelTiter-Glo assay. In kind it is functional, cell-based. The settings on record: SUP-B15, 72 h.
For assay [4], the system named is UoC-B1. The experiment in a line: Antiproliferative activity against human UOCB1 cells after 72 hrs by CelTiter-Glo assay. It counts as functional, cell-based. Particulars: UoC-B1, 72 h.
The subject of assay [5] is HepG2. The experiment in a line: Antiproliferative activity against human HepG2 cells after 72 hrs by CelTiter-Glo assay. In kind it is functional, cell-based. The settings on record: HepG2, 72 h.
For assay [6], the system named is BJ. The experiment in a line: Antiproliferative activity against human BJ cells after 72 hrs by CelTiter-Glo assay. In kind it is cell-based.

As to `COC(=O)c1cc(=O)c2cc(NC(=O)Nc3ccc(C(F)(F)F)cc3)ccc2[nH]1`, the half-maximal effective concentration (EC50) (commonly the concentration needed to bring the measured effect to its halfway point) in assay [1] is above 6.35 µM; in assay [2], above 6.35 µM; in assay [3] it was 3.27 µM; in assay [4] it was above 6.35 µM; in assay [5], above 6.35 µM; in assay [6] it was above 12.6 µM.
As for `CCOC(=O)[C@H](Cc1ccccc1)NC(=O)Nc1ccc2[nH]c(C(=O)OC)cc(=O)c2c1`, the EC50 is above 13.9 µM in assay [1]; above 13.9 µM in assay [2]; 16.5 µM in assay [3]; above 13.9 µM in assay [4]; above 13.9 µM in assay [5]; above 27.6 µM in assay [6].
In the case of `COC(=O)c1cc(=O)c2cc(NC(=O)Nc3ccc(Cl)c(Cl)c3)ccc2[nH]1`, the EC50 was above 6.35 µM in assay [1]; above 6.35 µM in assay [2]; 5.52 µM in assay [3]; above 6.35 µM in assay [4]; above 6.35 µM in assay [5]; above 12.6 µM in assay [6].
`C=C(C)c1cccc(C(C)(C)NC(=O)Nc2ccc3[nH]c(C(=O)OC)cc(=O)c3c2)c1`: the EC50 was above 11.5 µM in assay [1]; above 11.5 µM in assay [2]; above 23 µM in assay [3]; above 11.5 µM in assay [4]; above 11.5 µM in assay [5]; above 23 µM in assay [6].
Regarding `COc1cc(OC)c2c(=O)cc(C(=O)Nc3cccc(-c4nccs4)c3)[nH]c2c1`, the EC50 in assay [1], in assay [2], in assay [3], in assay [4], in assay [5] and in assay [6] was above 54 µM throughout.
As to `COc1cc(OC)c2c(=O)cc(C(=O)Nc3ccc(Oc4cccnc4)cc3)[nH]c2c1`, the EC50 was above 32.2 µM in assay [1]; above 32.2 µM in assay [2]; above 32.2 µM in assay [3]; 27.7 µM in assay [4]; above 32.2 µM in assay [5]; above 32.2 µM in assay [6].
Consider `COC(=O)c1cc(=O)c2c(OC)cc(OC)cc2[nH]1`, for which the concentration giving a half-maximal response (EC50) was above 34.5 µM in assay [1]; above 34.5 µM in assay [2]; 16.1 µM in assay [3]; above 34.5 µM in assay [4]; above 34.5 µM in assay [5]; above 34.5 µM in assay [6].
As for `COC(=O)c1cc(=O)c2cc(NC(=O)Nc3cc(F)cc(C(F)(F)F)c3)ccc2[nH]1`, the EC50 is above 20.2 µM in assay [1]; above 20.2 µM in assay [2]; above 40.2 µM in assay [3]; above 20.2 µM in assay [4]; above 20.2 µM in assay [5]; above 40.2 µM in assay [6].
Take `COc1cc(OC)c2c(=O)cc(C(=O)Nc3ccc4oc(-c5ccc(F)cc5)nc4c3)[nH]c2c1`: the EC50 in assay [1], in assay [2], in assay [3], in assay [4], in assay [5] and in assay [6] was above 36.8 µM in each case.
Take `COC(=O)c1cc(=O)c2cc(NC(=O)NC3c4ccccc4-c4ccccc43)ccc2[nH]1`: the EC50 in assay [1] is above 12.1 µM; in assay [2] it was above 12.1 µM; in assay [3], above 24.1 µM; in assay [4] it was above 12.1 µM; in assay [5], above 12.1 µM; in assay [6] it was above 24.1 µM.
As for `COC(=O)c1cc(=O)c2cc(NC(=O)Nc3ccc(C(F)(F)F)cc3[N+](=O)[O-])ccc2[nH]1`, the EC50 was above 26 µM in assay [1]; 22.5 µM in assay [2]; above 51.7 µM in assay [3]; above 26 µM in assay [4]; above 26 µM in assay [5]; above 51.7 µM in assay [6].
As for `COC(=O)c1cc(=O)c2cc(NC(=O)Nc3ccc(F)c(Cl)c3)ccc2[nH]1`, the 50% effective concentration (EC50) is above 6.35 µM in assay [1]; above 6.35 µM in assay [2]; above 12.6 µM in assay [3]; above 6.35 µM in assay [4]; above 6.35 µM in assay [5]; above 12.6 µM in assay [6].
In the case of `COc1cc(OC)c2c(=O)cc(-c3ccc4c(c3)OCO4)[nH]c2c1`, the EC50 in assay [1] is above 27.7 µM; in assay [2], above 27.7 µM; in assay [3], 18.8 µM; in assay [4], above 27.7 µM; in assay [5], above 27.7 µM; in assay [6], above 55.2 µM.
For `O=c1c(-c2ccc(O)cc2)coc2cc(O)cc(O)c12` [GENISTEIN], the EC50 in assay [1] is above 86.2 µM; in assay [2], 59.3 µM; in assay [3], above 86.2 µM; in assay [4], 35.7 µM; in assay [5] it was 67.7 µM; in assay [6] it was above 86.2 µM.
As to `COC(=O)c1cc(=O)c2cc(NC(=O)NC34CC5CC(CC(C5)C3)C4)ccc2[nH]1`, the EC50 was above 16.2 µM in assay [1]; above 16.2 µM in assay [2]; 9.1 µM in assay [3]; above 16.2 µM in assay [4]; above 16.2 µM in assay [5]; above 32.2 µM in assay [6].
As for `COC(=O)c1cc(=O)c2cc(NC(=O)Nc3cc(OC)c(OC)c(OC)c3)ccc2[nH]1`, the 50% effective concentration (EC50) in assay [1] was above 43.3 µM; in assay [2], above 43.3 µM; in assay [3] it was above 86.2 µM; in assay [4] it was above 43.3 µM; in assay [5], above 43.3 µM; in assay [6], above 86.2 µM.
For `COC(=O)c1cc(=O)c2cc(NC(=O)Nc3ccc4c(c3)CCC4)ccc2[nH]1`, the EC50 in assay [1], in assay [2], in assay [3], in assay [4], in assay [5] and in assay [6] was above 24.1 µM each time.
`COC(=O)c1cc(=O)c2cc(NC(=O)Nc3cccc(C(C)=O)c3)ccc2[nH]1`: the EC50 in assay [1] was above 8.08 µM; in assay [2] it was above 8.08 µM; in assay [3] it was 11.4 µM; in assay [4] it was above 8.08 µM; in assay [5], above 8.08 µM; in assay [6] it was above 16.1 µM.
On to `COC(=O)c1cc(=O)c2cc(NC(=O)Nc3ccc4c(c3)OCCO4)ccc2[nH]1`, for which the EC50 is above 13.3 µM in assay [1]; above 13.3 µM in assay [2]; above 26.4 µM in assay [3]; above 13.3 µM in assay [4]; above 13.3 µM in assay [5]; above 26.4 µM in assay [6].
`COc1ccc(Oc2ccc(C(F)(F)F)cc2NC(=O)c2cc(=O)c3c(OC)cc(OC)cc3[nH]2)cc1`: the EC50 in assay [1] was above 67.2 µM; in assay [2], above 67.2 µM; in assay [3], above 67.2 µM; in assay [4], above 67.2 µM; in assay [5], 5.3 µM; in assay [6], above 67.2 µM.
On to `COc1cc(OC)c2c(=O)cc(C(=O)Nc3cccc(-n4ccnc4)c3)[nH]c2c1`, for which the EC50 in assay [1], in assay [2], in assay [3], in assay [4], in assay [5] and in assay [6] was above 16.4 µM throughout.
Take `COc1cc(OC)c2c(=O)cc(C(=O)Nc3ccc(-n4cccc4)cc3)[nH]c2c1`: the EC50 in assay [1] is above 77 µM; in assay [2], above 77 µM; in assay [3], above 77 µM; in assay [4], 51.8 µM; in assay [5], above 77 µM; in assay [6], above 77 µM.
Take `COC(=O)c1cc(=O)c2cc(NC(=O)NCc3ccccc3)ccc2[nH]1`: the EC50 in assay [1], in assay [2], in assay [3], in assay [4], in assay [5] and in assay [6] was above 19.5 µM throughout.
As for `COc1cc(OC)c2c(=O)cc(C(=O)Nc3ccc(N4CCN(C)CC4)cc3)[nH]c2c1`, the EC50 in assay [1], in assay [2], in assay [3], in assay [4], in assay [5] and in assay [6] was above 19.8 µM each time.
Turning to `COc1cc(OC)c2c(=O)cc(C(=O)Nc3ccc(Oc4ccc(F)cc4)cc3)[nH]c2c1`, the EC50 in assay [1], in assay [2], in assay [3], in assay [4], in assay [5] and in assay [6] was above 50 µM in each case.
In the case of `COC(=O)c1cc(=O)c2cc(NC(=O)N[C@@H](C)c3cccc(OC)c3)ccc2[nH]1`, the EC50 in assay [1], in assay [2], in assay [3], in assay [4], in assay [5] and in assay [6] was above 25.3 µM in each case.
In the case of `COc1ccc(-c2cc(=O)c3c(OC)cc(OC)cc3[nH]2)cc1`, the concentration for a half-maximal effect (EC50) is above 31.2 µM in assay [1]; above 31.2 µM in assay [2]; above 62.1 µM in assay [3]; above 31.2 µM in assay [4]; above 31.2 µM in assay [5]; above 62.1 µM in assay [6].
For `COc1cc(OC)c2c(=O)cc(C(=O)Nc3cccc(N4CCCC4)c3)[nH]c2c1`, the EC50 in assay [1], in assay [2], in assay [3], in assay [4], in assay [5] and in assay [6] was above 58.6 µM each time.
For `C=CCNC(=O)Nc1ccc2c(c1)c(=O)cc(C(=O)OC)n2C(=O)NCC=C`, the EC50 was above 43.3 µM in assay [1]; above 43.3 µM in assay [2]; 86.2 µM in assay [3]; above 43.3 µM in assay [4]; above 43.3 µM in assay [5]; 86.2 µM in assay [6].
As to `COc1ccc(-c2cc(=O)c3c(OC)cc(OC)cc3n2Cc2ccccc2)cc1`, the EC50 in assay [1] was above 17.3 µM; in assay [2] it was above 17.3 µM; in assay [3], above 34.5 µM; in assay [4], above 17.3 µM; in assay [5], above 17.3 µM; in assay [6], above 34.5 µM.
On to `COC(=O)c1cc(=O)c2cc(NC(=O)Nc3ccc4c(c3)CCN4C)ccc2[nH]1`, for which the EC50 in assay [1], in assay [2], in assay [3], in assay [4], in assay [5] and in assay [6] was above 86.2 µM throughout.
As for `COC(=O)c1cc(=O)c2c(OC)cc(OC)cc2n1C`, the EC50 is above 19 µM in assay [1]; above 19 µM in assay [2]; above 37.9 µM in assay [3]; 0.773 µM in assay [4]; above 19 µM in assay [5]; above 37.9 µM in assay [6].
